In patent US8216580B2, “Sulfatases and methods of use thereof” (The Regents of the University of California, priority 2000, dated 2012):

Columns and labels:
[1] = Endo-glucosamine-6-sulfatase assay against intact heparin (heparinase digestion, disaccharide HPLC); type: biochemical, porcine; conditions: for Endo-glucosamine-6-sulfatase activity: 10 μg heparin, pH 7.5, 37° C., 8 hr, means±S.D., three reactions
Description: The procedures of Yoshida et al ((1989) Anal. Biochem. 177:327-332) were adapted for these assays. CM from transfected CHO cells (wild-type Sulfs, vector control or the double cysteine mutants) was prepared as described above. The standard reaction mixture contained 5 μmol of Tris-HCl, pH 7.5, 1 μmol of MgCl2, 10 μg of porcine intestinal heparin (Sigma, St. Louis, Mo.) and 20 μl of the 100-fold concentrated CM in a total volume of 100 μl. After incubation at 37° C. for 8 hr, the reaction was stopped by heating at 100° C. for 2 min. A mixture of 1 milliunit of Heparinase I (EC 4.2.2.7, Sigma), 0.25 milliunits of Heparinase II (Sigma) and 0.1 milliunits of Heparinase III (EC 4.2.2.8, Sigma) in 1.5 μl of 50 mM Tris-HCl, pH 7.5, was added to the reaction mixture and incubated at 37° C. for 3 hr. The digestion was stopped by heating at 100° C. for 2 min, and the mixture was filtered by centrifugation in an Ultrafree-MC filter (Millipore).
The disaccharides of the digested heparin were then analyzed by HPLC on a Partisil-10 SAX column (Whatman, Fairfield, N.J.) run at 41° C. Disaccharides were eluted from the column by increasing the ionic strength as follows: time 0-5 min, 12 mM KH2PO4; time 5-40 minutes, gradient from 12 mM to 600 mM; time 40-45 min, 600 mM. Absorbance at 232 nm was monitored and components were identified by comparison with authentic unsaturated disaccharide markers from Sigma, i.e. ΔDiHS-0S, ΔDiHS-6S, ΔDiHS-NS, ΔDiHS-(N,6)diS, ΔDiHS-(N,2)diS and ΔDiHS-(N,6,2)triS. The endo-glucosanine-6-sulfatase activities of human Sulf-1 and Sulf-2 against heparin proceeded linearly up to 10 hr under these conditions. In other assays, 10 μg of chondroitin 6-sulfate was employed as a substrate in the standard assay. After incubation with CM, 15 milliunits of Chondroitinase ABC (EC 4.2.2.4, Sigma) was used to fragment the chondroitin sulfate. The standards used were as follows: ΔDi-0S, ΔDi-6S, ΔDi-4S, ΔDi-diSD(2,6) and ΔDi-diSE(4,6). All were from Oxford GlycoSystems Inc.
Intact heparin (10 μg) was treated with conditioned medium from Sulf transfected CHO cells. To analyze activity on specific sulfation modifications, we digested the treated heparin with a mixture of bacterial heparinases and analyzed the disaccharide products by HPLC using standards (Yoshida, supra). Both HSulf-1 CM and Hsulf-2 CM produced an ≈80% reduction in the amount of trisulfated units ([…]) corresponding to IdoA2S-GlcNS6S and a parallel increase in that of disulfated units (ΔDiHS-(N,2)diS) corresponding to IdoA2S-GlcNS (FIG. 16A-C). There were no effects on the disulfated units ΔDiHS-(N,6)diS, monosulfated or non-sulfated units. Specific activities were calculated based on the volume of CM (Table 3). The endosulfatase activities of Sulf-1 and Sulf-2 CM were increased 9-fold and 10-fold respectively relative to CM from mock transfected cells (Table 3). […] Further selectivity of the endosulfatase activity was indicated when we employed chondroitin 6-sulfate as a substrate. […] Thus the Sulfs are active against intact heparin.
Endo-glucosamine-6-sulfatase activity was measured against intact heparin as described in above using CM derived from CHO cells transfected with the indicated vectors. HSulf-1 ΔCC and HSulf-2 ΔCC denote the CC87, 88AA and CC88, 89AA mutants, respectively. Endosulfatase activity was defined by calculating the moles of unsaturated trisulfated disaccharides from which the sulfate group on C-6 position was liberated in the standard assay (FIGS. 16A-F) by the Sulfs as compared to levels in untreated control samples. Values shown are means±S.D. based on three independent reactions.

Wnt signaling = assay: TCF-luciferase (TOPFlash/FOPFlash) Wnt reporter assay in pancreatic adenocarcinoma cell lines; type: cell-based, human; conditions: for Wnt activity: 16 hours with conditioned medium of HEK 293 clones
Description: Cells were plated in 24 well plates and transfected with either 0.3 μg TOPFlash or FOPFlash and 0.01 μg Renilla control plasmid (Promega) using Fugene (Roche) according to the manufacturer's procedure. After 48 hours cells were lysed and analyzed utilizing the Dual Luciferase Reporter Assay system (Promega). Luciferase activity was normalized to control Renilla activity.
To search for evidence that endogenous expressed sulfatases in pancreatic adenocarcinoma cell lines regulate Wnt signaling, the method of gene silencing was used. An antisense cDNA against both sulfatases was transiently transfected into four different cell lines. As a control, cells were transfected with a MMP-9 antisense cDNA. Wnt signaling was quantified by TCF-luciferase activity.
HSulf-1 DCC and HSulf-2 DCC mutants are as follows: 1) cysteines 87 and 88 of HSulf-1 (designated as HSulf-1 ΔCC or HSulf-1 DCC) were changed to alanines; and cysteines 88 and 89 of HSulf-2 (designated as HSulf-2 ΔCC or HSulf-2 DCC) were changed to alanines (see Example 9, above).
The effect of conditioned medium derived from the HEK 293 cell lines on Wnt signaling was determined. Pancreatic adenocarcinoma cells were incubated for 16 hours with conditioned medium derived from the described HEK 293 clones; and the TOP/FOPflash system was used to quantify Wnt signaling.
In order to compare proliferation of BxPC3 sil413 cells and mock transfected BxPC3 cells in vitro, GFP+ (HSulf-2 positive) and GFP− (HSulf-2 negative) cells were co-cultured; and the ratio of GFP+ to GFP− cells was followed over time. […] Additionally, using sorted BxPC3 si1413 cells we examined proliferation performing BrdU incorporation experiments (FIG. 21D).

[2] = system: pancreatic adenocarcinoma cell lines; assay: Transwell co-culture proliferation (cell counts) with HEK 293 feeder layer; type: cell-based, human; conditions: exogenous protein from 293 feeder layer
Description: Co-culture experiments were performed in transwell plates with 24-well inserts with 5 μm polycarbonate membrane pore size (Corning Incorporated). HEK 293 cells were plated in the wells as feeder layer and one day later 1-2×10^3 cells of the pancreatic adenocarcinoma cell lines were plated in the inserts. Cells were grown in DMEM supplemented with 10% fetal calf serum.
293 cells expressing either HSulf-2, HSulf-2-DCC, parental 293 or only medium alone were used as feeder layer; and pancreatic adenocarcinoma lines were grown on transwell filters. Subsequently, cell counts were followed over time.

[3] = CM from transfected CHO cells, intact heparin 10 μg

effects on the disulfated units ΔDiHS-(N,6)diS, monosulfated or non-sulfated units [1, 3] | reduction in the amount of trisulfated units ([…]) corresponding to IdoA2S-GlcNS6S [1, 3] | removal of sulfate from the 6-position of glucosamine within the tri-sulfated units ([1]; intact heparin, neutral pH) [%] | Substance | Endo-glucosamine-6-sulfatase activity ([1]; CM from transfected CHO cells) | endosulfatase activity increase relative to CM from mock transfected cells ([1]; based on Table 3) [fold] | Wnt activity (Wnt signaling; CFPAC-1 cells) | Wnt activity (Wnt signaling; cell lines inhibited in proliferation) | inhibition of Wnt signaling (TCF-luciferase activity) (Wnt signaling; transient transfection, in three of the four examined pancreatic adenocarcinoma cell lines) | proliferation (cell counts over time) ([2]; BxPC-3, HS766T and L3.6sl cells) | proliferation (cell counts over time) ([2]; CFPAC-1 cells)
no effects | ≈ 80% | 80 | HSulf-2: Human SULF2, an 870 amino acid sulfatase protein, SEQ ID NO:06; expressed with C-terminal Myc-His tag | 96.6 ± 0.5 pmol/hr/ml of medium | 10 | – | – | – | – | –
– | – | – | HSulf-2 ΔCC: catalytically inactive HSulf-2, cysteines 88 and 89 mutated to alanines (CC88, 89AA) | 5.6 ± 0.6 pmol/hr/ml of medium | – | did no respond | significant decrease | about 50% | inhibited | did not show any response
